Reference: paper PMC3914206

Assays:
Format in all cases: binding
Conditions in all cases: Compound Concentration 10 µM
panel of 442 kinases [1] = molecular target: T1, panel of 442 kinases (Homo sapiens, UniProt Q9BQI3)
T1 construct: purchased KINOMEscan
From the text: (§1) We assessed the selectivity of members of this scaffold using the KINOMEscan methodology across a near comprehensive panel of 442 kinases [[18,27]].

panel of 442 kinases [2] = molecular target: T2, panel of 442 kinases (Homo sapiens, UniProt P15056)
T2 construct: purchased KINOMEscan
T2 sequence (P15056 whole entry): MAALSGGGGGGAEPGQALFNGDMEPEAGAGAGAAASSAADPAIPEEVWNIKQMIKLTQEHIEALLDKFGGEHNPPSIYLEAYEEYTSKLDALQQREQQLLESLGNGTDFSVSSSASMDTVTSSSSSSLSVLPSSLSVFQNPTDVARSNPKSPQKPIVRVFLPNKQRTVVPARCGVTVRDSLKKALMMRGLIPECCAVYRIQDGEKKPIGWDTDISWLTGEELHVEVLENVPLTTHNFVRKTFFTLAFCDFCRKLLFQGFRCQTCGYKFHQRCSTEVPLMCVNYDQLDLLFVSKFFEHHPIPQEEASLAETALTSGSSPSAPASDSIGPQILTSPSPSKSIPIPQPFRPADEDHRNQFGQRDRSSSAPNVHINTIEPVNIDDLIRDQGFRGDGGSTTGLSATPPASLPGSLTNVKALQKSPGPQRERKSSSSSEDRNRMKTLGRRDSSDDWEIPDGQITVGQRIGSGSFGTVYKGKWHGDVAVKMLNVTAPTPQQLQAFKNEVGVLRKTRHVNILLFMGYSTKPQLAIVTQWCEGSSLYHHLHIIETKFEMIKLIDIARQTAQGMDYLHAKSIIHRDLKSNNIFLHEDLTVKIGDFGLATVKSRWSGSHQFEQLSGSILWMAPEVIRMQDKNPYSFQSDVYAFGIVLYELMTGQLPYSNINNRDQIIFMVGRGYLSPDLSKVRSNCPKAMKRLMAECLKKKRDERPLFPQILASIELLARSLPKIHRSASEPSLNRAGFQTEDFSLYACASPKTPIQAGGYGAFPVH
From the text: as §1

panel of 442 kinases [3] = molecular target: T3, panel of 442 kinases (Homo sapiens, UniProt P20794)
T3 construct: purchased KINOMEscan
T3 sequence (P20794 1-623): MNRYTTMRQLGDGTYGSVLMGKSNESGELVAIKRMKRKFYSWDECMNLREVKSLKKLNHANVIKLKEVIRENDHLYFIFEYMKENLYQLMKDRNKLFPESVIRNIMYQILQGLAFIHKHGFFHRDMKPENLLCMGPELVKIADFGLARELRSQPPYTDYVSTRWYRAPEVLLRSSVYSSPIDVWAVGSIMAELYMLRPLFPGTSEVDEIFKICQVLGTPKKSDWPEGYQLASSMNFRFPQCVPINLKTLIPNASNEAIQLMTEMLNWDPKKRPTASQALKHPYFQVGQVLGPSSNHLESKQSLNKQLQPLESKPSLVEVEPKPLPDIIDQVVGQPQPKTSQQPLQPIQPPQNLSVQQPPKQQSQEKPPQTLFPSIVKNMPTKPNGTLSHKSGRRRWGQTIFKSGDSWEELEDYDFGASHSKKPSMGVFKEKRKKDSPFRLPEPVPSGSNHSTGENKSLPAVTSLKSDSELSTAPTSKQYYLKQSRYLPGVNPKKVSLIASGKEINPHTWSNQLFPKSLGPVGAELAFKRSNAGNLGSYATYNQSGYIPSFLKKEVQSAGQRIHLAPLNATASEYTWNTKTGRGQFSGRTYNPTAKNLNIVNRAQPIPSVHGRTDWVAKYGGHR
From the text: as §1

T1 sequence (Q9BQI3 whole entry): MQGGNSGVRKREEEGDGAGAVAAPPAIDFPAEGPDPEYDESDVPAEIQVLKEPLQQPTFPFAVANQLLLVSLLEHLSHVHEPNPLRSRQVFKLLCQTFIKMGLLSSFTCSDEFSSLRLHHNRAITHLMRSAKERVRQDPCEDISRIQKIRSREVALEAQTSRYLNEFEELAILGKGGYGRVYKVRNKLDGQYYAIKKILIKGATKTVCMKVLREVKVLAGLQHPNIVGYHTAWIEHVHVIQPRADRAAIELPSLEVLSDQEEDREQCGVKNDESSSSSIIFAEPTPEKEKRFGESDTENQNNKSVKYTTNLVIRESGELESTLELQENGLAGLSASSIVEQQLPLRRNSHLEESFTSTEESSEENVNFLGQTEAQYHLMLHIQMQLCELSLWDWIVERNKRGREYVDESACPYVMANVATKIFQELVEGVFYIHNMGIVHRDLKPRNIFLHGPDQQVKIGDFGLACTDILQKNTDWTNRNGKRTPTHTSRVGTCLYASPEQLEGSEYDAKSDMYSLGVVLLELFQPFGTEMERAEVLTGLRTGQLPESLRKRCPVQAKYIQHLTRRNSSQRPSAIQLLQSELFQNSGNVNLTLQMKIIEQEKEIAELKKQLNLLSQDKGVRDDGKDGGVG

Row | Compound | KINOMEscan: EIF2AK1 (panel of 442 kinases [1]) | KINOMEscan: BRAF (panel of 442 kinases [2]) | KINOMEscan: MAK (panel of 442 kinases [3])
1 | COc1cc(C(=O)N2CCC(N3CCN(C)CC3)CC2)ccc1Nc1ncc2c(n1)N(C)c1ccccc1C(=O)N2C [15 (LRRK2-IN-1)] | 100 | 81 | 72
2 | COc1cc(C(=O)N2CCC(N3CCN(C)CC3)CC2)ccc1Nc1ncc2c(n1)N1CCc3cccc(c31)C(=O)N2C [Compound 24] | – | – | 100
3 | COc1cc(C(=O)N2CCC(N3CCN(C)CC3)CC2)ccc1Nc1ncc2c(n1)N(C1CCCC1)c1ccccc1C(=O)N2C [Compound 25, 11-cyclopentyl-2-((2-methoxy-4-(4-(4-methylpiperazin-1-yl)piperidine-1-carbonyl)phenyl)amino)-5-methyl-5H-benzo[e]pyrimido[5,4-b][1,4]diazepin-6(11H)-one] | 100 | 100 | 100
4 | CCOc1cc(C(=O)N2CCC(N3CCN(C)CC3)CC2)ccc1Nc1ncc2c(n1)N(C1CCCC1)c1ccccc1C(=O)N2C [Compound 26] | 100 | 90 | 100
